Assay results from patent US20220202753A1, “METHOD OF DELIVERY OF INTRAVENOUS BACLOFEN” (Allaysis, LLC, priority 2020, published 2022).
In brackets after ≈: the same amount, converted by molar mass.

Legend:
[1] = Study 1: two-way crossover study of oral and intravenous baclofen in healthy adult volunteers; type: in vivo, human
Description: Study 1: Two-Way Crossover Study of Oral and Intravenous Baclofen in Healthy Adult Volunteers
The objective of the study was to characterize baclofen pharmacokinetics following oral and IV administration following low doses in healthy adult volunteers and determine the safety profile of an IV baclofen formulation.
This study was a randomized, open label, balanced, two-treatment, single dose, crossover design in normal, healthy adult human subjects under fasting conditions.
Initially, three adult volunteers received a single 3 mg IV and a 5 mg oral baclofen dose on separate study days. On the first day of drug administration in the study, one subject was given baclofen intravenously, and two subjects were given baclofen orally. On the second day of drug administration in the study, those that received baclofen orally received the TV dose and the individual who received the IV dose received the oral dose. Clinical tolerance was assessed, and plasma concentrations of baclofen were measured from the first three subjects before additional subjects were entered into the study. Nine additional adult volunteers received single 5 mg IV and 10 mg oral baclofen doses on separate days. Randomization occurred in a 1:1 ratio, such that all subjects received IV and oral baclofen on separate study days, but not necessarily in the same order. A total of twelve (12) subjects completed the clinical phase of the study. Plasma samples of 12 subjects were analyzed. However, the data from nine (9) subjects who received 5 mg IV and 10 mg oral tablet were considered for pharmacokinetic analysis and the calculation of within-subject variability. The three subjects who received 3 mg IV/5 mg oral baclofen were excluded from the pharmacokinetic analysis because more than half of the plasma concentrations were below the limit of quantitation (BLQ). Therefore, meaningful estimation of AUC was not possible for these subjects.

[2] = Study 2: dose escalation study of IV baclofen in healthy adult volunteers; type: in vivo, human; details: for subjects with asymptomatic nystagmus: 10-minute infusion, of 12 subjects; for bioavailability: human, plasma
Procedure: Study 2: Dose Escalation Study of IV Baclofen in Healthy Adult Volunteers
Following completion of the first-in-human study, a dose escalation study of IV and oral baclofen in 36 healthy volunteers was carried out using a randomized crossover oral/IV dose design and incorporating the investigational baclofen IV injection. The objectives of the study were: 1) characterize the pharmacokinetics of clinically relevant doses of oral and intravenous baclofen, 2) determine the safety profile of oral and intravenous baclofen, and 3) estimate bioequivalence parameters (AUC and Cmax) for 10- and 60-minute (only 15 mg dose) infusions of baclofen.
The general design of the study involved three cohorts of 12 subjects. Initially 3 subjects were randomized to receive the lowest dosing regimen. These subjects received a 7.5 mg IV infusion, followed by a washout period of 2 or more days, followed by a 10 mg oral dose. […] Twelve subjects completed Cohort 1 and received a […] IV and a 10 mg oral dose. The IV baclofen doses were based on a 75% bioavailability observed in the pilot study. In Cohort 2, 12 different subjects received 11.5 mg of IV and 15 mg of oral baclofen. In Cohort 3, another 12 subjects received 20 mg of oral and 15 mg of IV baclofen. Once all subjects had completed the 15 mg IV dose without complications, an additional dosing period was added to this Cohort in which 15 mg baclofen was infused over 60 in to 12 subjects. […] Blood samples were collected between 0-24 hours. A validated, liquid chromatography-mass spectroscopy assay was used to measure plasma baclofen concentrations.
Pharmacokinetic analysis was performed with Phoenix (Centara), a pharmacokinetic data analysis package. Pharmacokinetic parameters, including the observed maximum concentration (Cmax), the observed time to maximum concentration (Tmax), area under the concentration-time curve (AUC), clearance (CL), and volume of distribution (Vd), were estimated using non-compartmental analysis. The absolute oral bioavailability was calculated by dividing the dose-normalized AUC after oral dosing by the dose-normalized AUC after intravenous dosing. For an exploratory study of bioequivalence, the 90% confidence intervals of the geometric mean AUC(0-t), AUC(0-∞) and Cmax oral/AV ratios were determined using the 60-minute infusion as the test dose and the oral […] dose as the reference.

[3] = Combined results of the two pilot pharmacokinetic studies (first in human and dose escalation); type: in vivo; details: for bioavailability: human, plasma
Procedure: Two pilot studies were conducted to characterize baclofen pharmacokinetics and safety following intravenous administration and to access absolute bioavailability of IV and oral baclofen. These studies are described in: A Pilot Study Assessing Pharmacokinetics and Tolerability of Oral and Intravenous Baclofen in Healthy Adult Volunteers, Suresh K. Agarwal, Robert L. Kriel, James C. Cloyd, Lisa D. Coles, Lisa A. Scherkenbach, Michael H. Tobin, and Linda E. Krach, Journal of Child Neurology 2014, 30(1) 37-41; and A Randomized Dose Escalation Study of intravenous Baclofen in Healthy Volunteers: Clinical Tolerance and Pharmacokinetics, Schmitz N S, Krach L E, Coles L D, Mishra U, Agarwal S K, Cloyd J C, Kriel R L. PM&R, 2017, Volume 9(8), 743-750, both hereby incorporated by reference as though fully set forth herein. […] In order to meet bioequivalency criteria for both exposure (AUC) and peak concentration (Cmax), it was concluded that infusion times needed to be longer. To that end, modeling and simulation studies were performed to predict IV baclofen dosing regimens that would be bioequivalent to a 20 mg oral dose with respect to both AUC and Cm. These simulations formed the basis for a pivotal bioequivalence study where three different dosing regimens of baclofen IV (15 mg infused over 3 hours: 16 mg infused over 3 hours; and 16 mg infused over 4 hours, respectively) were compared to a single dose of a 20 mg oral tablet. Each of these IV regimens was bioequivalent to the 20 mg oral dosing but the 16 mg/3 hours dosing best met the bioequivalence criteria.
An important goal for adjusting the dose and duration of a baclofen infusion was to achieve bioequivalent systemic exposure (Cmax and AUC) between a single-dose baclofen IV infusion and a 20 mg oral baclofen tablet.

[4] = Population pharmacokinetic modeling and simulation of IV baclofen infusion duration; parameters: species or system human
Procedure: Plasma concentrations from cohorts 2 and 3 from Study 2 described above were used to build a two-compartment model simultaneously describing the IV and PO routes of administration. Population PK models were developed using data from cohort 3 and cohorts 2 and 3 combined (see FIGS. 4 and 5). It is worth noting that the PK parameter estimates from both study populations were similar. Two PK models with fixed absorption rate constants (Ka) of 0.6 and 0.8 hr^−1 were used. These were determined from estimates from the population pharmacokinetic model and literature.
To assess the effect of infusion duration on Cmax and AUC, simulations were performed using the population PK parameter estimates determined from the baclofen dose ranging study. Using the models described above, simulations (n=10) of 30 subjects were completed using a 20 mg oral dose and IV doses of 15 and 16 mg infused over 120, 150, 180, and 210 minutes. The simulated data were then analyzed using non-compartmental analysis and bioequivalence of the maximum concentration and area under the curve was assessed. FIGS. 10 and 11 summarize how many times of the 10 simulations that the infusion rate met bioequivalence when 16 and 15 mg doses were used, respectively.
To assess the effect of infusion duration on Cmax, a population pharmacokinetic model was developed using the observed plasma concentrations of baclofen following oral dosing of 20 mg and IV dosing of 15 mg infused over 10 and 60 minutes. Plasma concentrations of baclofen were best described by a two-compartment model, displaying a very rapid tissue distribution phase indicative of highly perfused tissues such as the liver, lung and brain and a more prolonged elimination phase. […] Using the PK model, baclofen concentrations for a 20t mg oral dose, a 15 mg IV dose infused over 180 minutes, and 16 mg IV dose infusions administered over 180 and 240 min were simulated. This allowed a determination of the effect of infusion duration on baclofen Cmax.

[5] = cited from earlier work
[6] = Clinical bioequivalence study of baclofen injection compared to baclofen tablets in healthy adult volunteers; type: in vivo, human
Description: This study was designed as a two-part, single-dose bioequivalence study of baclofen injection (test formulation) compared to commercial baclofen tablets (reference product) in healthy adult volunteers under fasted conditions. Part 1 of this study was a single-dose, open-label, four-treatment, randomized, crossover bioequivalence study of baclofen tablets and baclofen injection in healthy adults under fasted conditions. If needed, Part 2 of this study was to be a single-dose, two-way crossover between the most promising infusion of baclofen injection from Part 1 and baclofen tablets.
Subjects were randomized to receive each of 4 treatments in a randomized, crossover fashion: • 15 mg of baclofen injection administered intravenously over 180 minutes • 16 mg of baclofen injection administered intravenously over 180 minutes • 16 mg of baclofen injection administered intravenously over 240 minutes • 20 mg of baclofen tablet administered orally
Each treatment administration was separated by a washout period of at least 3 days. Each dose was administered following a 10-hour overnight fast.
During each study period, 6 mL blood samples were obtained prior to study drug administration and at selected times through 48 hours after drug administration. In the study periods in which subjects received an IV infusion. PK sampling was timed relative to the start of the infusion. Plasma pharmacokinetic samples were analyzed for baclofen using a validated achiral bioanalytical method. Appropriate pharmacokinetic parameters were calculated for each formulation using non compartmental methods.
Treatments A, B, and C: • Treatment A dose:=15 mg of baclofen injection administered intravenously over 180 minutes • Treatment B dose=16 mg of baclofen injection administered intravenously over 180 minutes • Treatment C dose=16 mg of baclofen injection administered intravenously over 240 minutes
Control Product: Treatment D: • Baclofen Tablet, 20 mg, dose:=1×20 mg tablet
Concentration-time data for baclofen were analyzed using noncompartmental methods in Phoenix™ WinNonlin® Version 6.3, Certara L.P.). During the pharmacokinetic analysis, concentrations below the limit of quantitation […] up to the time of the first quantifiable concentration were treated ac zero. Embedded (values between 2 quantifiable concentrations) and/or terminal BLQ concentrations were treated as “missing”. Actual sample times, relative to the time of dose, were used in the pharmacokinetic analysis.
During each baclofen injection treatment period, samples were drawn at 0 hour (predose) and 0.5, 1.0, 1.5, 2.0, 2.5, 3.0, 3.5, 4.0, 4.5, 5.0, 6.0, 7, 8, 10, 12, 18, 24, 30, 36, and 48 hours after starting the infusion.
During the baclofen tablet administration treatment period, samples were drawn at 0 hour (predose) and at 0.25, 0.5, 0.75, 1.0, 1.5, 2.0 3.0, 3.5, 4.0, 5.0, 6.0, 7, 8, 10, 12, 18, 24, 30, 36, and 48 hours after oral administration.

[7] = 5 mg IV infused over 15 minutes vs 10 mg oral

AUC of IV dose compared with oral dose [1, 7]: similar
Cmax of IV dose compared with oral dose [1, 7]: higher
Tmax of IV dose compared with oral dose [1, 7]: earlier
bioavailability ([1]; human, plasma, 10 mg oral vs 5 mg IV, n=9, fasting, read-out: estimated mean absolute bioavailability of oral baclofen): 74%
subjects with asymptomatic nystagmus ([2]; 7.5 mg IV): 2 subjects
subjects with asymptomatic nystagmus ([2]; 11.5 mg IV): 6 subjects
subjects with asymptomatic nystagmus ([2]; 15 mg IV): 6 subjects
subjects with nystagmus ([2]; 15 mg IV, 60-minute infusion): two
bioequivalence of baclofen IV and oral baclofen by AUC0-t and AUC0-inf ([2]; 15 mg at 60-min infusion): not
bioequivalence of IV infusions and oral baclofen by Cmax ([2]; 10- and 60-minute IV infusions): not bioequivalent
bioequivalence of baclofen IV and oral baclofen by AUC0-t and AUC0-inf ([2]; 10-min infusions at all dose levels): demonstrated
mean Cmax ratio of IV infusion to oral baclofen ([2]; 10-minute IV infusion, CI 247-281%): 263%
mean Cmax ratio of IV infusion to oral baclofen ([2]; 60-minute IV infusion, CI 135-165%): 149%
bioavailability ([2]; oral, all cohorts, read-out: estimated mean bioavailability): 89%
bioavailability ([2]; cohort 2 (11.5 mg IV, 15 mg oral), read-out: bioavailability estimate): 85.8%
bioavailability ([2]; cohort 3 (15 mg IV, 20 mg oral), read-out: bioavailability estimate): 81.2%
subjects not awake (took 20 seconds to awaken) ([2]; three and a half hours after a 10 mg oral dose): one
bioavailability ([3]; oral, 45 subjects, read-out: inter-patient range of % F): 42 to 132%
bioavailability ([3]; oral, two pilot studies, 10- to 60-minute IV infusions, healthy volunteers, read-out: estimated mean bioavailability of oral baclofen): 74 to 85%
bioavailability ([3]; po, 11.5 mg, read-out: mean oral bioavailability): 80%
bioavailability ([3]; po, 15 mg, read-out: mean oral bioavailability): 85%
bioavailability ([3]; po, 45 subjects, read-out: mean bioavailability of oral baclofen following a single dose): ~86%
ratio of an IV to an oral dose ([3]; two prospective studies in healthy volunteers): 80-85%
mean bioavailability ([4]; population PK model estimate): 84%
population mean terminal t1/2 (β) ([4]; two-compartment population PK model): approximately 4.2 hours
mean distribution t1/2 ([4]; two-compartment population PK model, 20 mg oral, 15 mg IV over 10 and 60 minutes): ~0.3 h
geometric mean ratio vs. Treatment D (20 mg oral tablet) for AUClast ([6]; 16 mg IV over 180 minutes, 90% CI 89.7-94.6%): 92.1%
geometric mean ratio vs. Treatment D (20 mg oral tablet) for AUCinf ([6]; 16 mg IV over 180 minutes, 90% CI 89.8-94.6%): 92.2%
geometric mean ratio vs. Treatment D (20 mg oral tablet) for Cmax ([6]; 16 mg IV over 180 minutes, 90% CI 93.7-101.0%): 97.3%
median Tmax ([6]; 20 mg oral tablet, fasted): 1.0 h
conversion factor to the oral regimen giving bioequivalent substitution ([6]; IV administered over 180 minutes): 0.8
bioequivalence to the 20 mg baclofen oral tablet ([6]; all three IV infusions: 15 mg over 180 min, 16 mg over 180 min, 16 mg over 240 min): bioequivalent
half-life ([6]; human, plasma, other: intravenous infusions and oral tablet, IV infusions and oral tablet, read-out: mean T1/2): 5.5 to 5.8 h
difference in median Tmax (oral tablet earlier than IV infusions) ([6]; human, plasma, other: oral tablet versus intravenous infusions, 20 mg oral tablet vs IV infusions): 2 to 3 h
Tmax ([6]; human, plasma, across IV infusions (15 mg/180 min, 16 mg/180 min, 16 mg/240 min), read-out: median Tmax): 3 to 4 h
clearance ([6]; human, plasma, across IV infusions, read-out: mean total systemic clearance (CLT)): 147 to 148 mL/min
Vd ([6]; human, plasma, across IV infusions, read-out: mean volume of distribution (Vz)): 69.8 to 71.4 L
SMILES: NCC(CC(=O)O)c1ccc(Cl)cc1 (centres unmarked) [baclofen, 4-amino-3-[4-chlorophenyl] butanoic acid]
tolerability ([1]; 3 and 5 mg IV): well tolerated
subjects with mild transient ataxia ([2]; 15 mg IV, 60-minute infusion): Two
subjects with mild transient ataxia ([2]; 20 mg oral): One
adverse effects ([2]; following both oral and IV doses): Mild, self-limited
solubility in chloroform ([5]; chloroform): insoluble
solubility in methanol ([5]; methanol): very slightly soluble
solubility in water ([5]; water): 2090 µg/mL (≈ 9.78 mM)
